Measurements reported in patent US8187822B2, “Methods to identify modulators” (Givaudan S.A., priority 2007, dated 2012).

Experiments:
TAS2R1 = target: T1, TAS2R1 (Homo sapiens, UniProt Q9NYW7); assay: Fluo-4 calcium assay, HEK293T cells stably expressing Gα16-gustducin44 and TAS2R1; assay type: cell-based
T1 construct: The full length gene of human TAS2R44 was amplified by polymerase chain reaction (PCR) using gene-specific primers that span the entire coding region; RSS tag (first 45 amino acids of rat somatostatin receptor subtype 3) (N); expressed in transfected cells
T1 sequence (Q9NYW7 1-299): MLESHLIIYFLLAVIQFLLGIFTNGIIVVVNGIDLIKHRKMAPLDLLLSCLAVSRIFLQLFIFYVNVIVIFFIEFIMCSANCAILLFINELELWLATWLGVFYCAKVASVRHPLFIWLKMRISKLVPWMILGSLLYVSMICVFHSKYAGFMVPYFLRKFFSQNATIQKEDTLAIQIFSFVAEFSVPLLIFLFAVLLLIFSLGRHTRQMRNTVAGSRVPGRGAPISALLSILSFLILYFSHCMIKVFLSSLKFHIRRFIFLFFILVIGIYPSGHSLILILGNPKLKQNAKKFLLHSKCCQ
Experimental: Cell lines that stably expresses a SABR (TAS2R44, TAS2R1, TAS2R10) was generated by transfecting pcDNA3.1Zeo-SABR into HEK293T/Gα16-gustducin 44 cells (both formed as described in example 1). The host cell line HEK-293T is commercially available from the American Tissue Culture Collection (ATCC), ATCC®# CRL-11268.
TAS2R1 expressing cells were identified by their response to 0.5 mM chloramphenicol (a known TAS2R1 agonist as described in WO 2006/053771) in addition to sucralose, which was determined via automated fluorimetric imaging on the FLIPR-Tetra instrumentation (Molecular Devices) using the methods described in Example 3. One clone was selected resulting in the HEK293T/Gα16-gustducin 44/TAS2R1 cell line.
At day 0, the HEK293T cell line expressing Gα16-gustducin44 and a TAS2R bitter taste receptor formed as described in examples 2b or 2c was seeded in antibiotic-free growth medium (standard DMEM with 10% (v/v) heat-inactivated fetal bovine serum, 2 mM L-glutamine[…]) into black wall/clear bottom 96-well plates, coated with poly(ethylenimine) (0.005% v/v) at a concentration of 15,000 cells per well and incubated for 48 hours in humidified atmosphere (37° C., 5% CO2).
At the time of the assay, the growth medium was discarded and the cells were in humidified atmosphere (37° C., 5% CO2) for 1 hour with 50 μl of loading buffer consisting of 1.5 μM Fluo-4 AM and […] probenicid (Sigma-Aldrich, St. Louis, Mo., US) in DMEM.
Afterwards, the 96-well plate was washed 5 times with 100 μl of assay buffer (130 mM NaCl, 5 mM KCl, 10 mM HEPES, 2 mM CaCl2, and 5 mM dextrose, pH 7.4) per well, using an automated plate washer (BioTek). The plate was further incubated for 30 minutes at room temperature in the dark to allow for complete de-esterification of the Fluo-4. Afterwards the plate was washed 5 times with 100 μl of assay buffer per well, and reconstituted with 100 μl of assay buffer per well.
For assay reading, the plate was placed in a Fluorometric Imaging Plate Reader (FLIPR) (FLIPR-TETRA™, Molecular Devices, Sunnyvale, Calif., US), and receptor activation was initiated by addition of 100 μl of a twofold concentrated agonist stock solution (to give the desired agonist end concentration when added to the 100 microliter assay buffer volume), which was prepared in assay buffer.
Fluorescence was continuously monitored for 20 seconds to give a signal baseline (averaged to give F0) prior to agonist addition and for 120 seconds after agonist addition. The change in signal divided by F0 gives ΔF/F0 indicated in the table, with ΔF being the maximum signal occurring within the 120 seconds minus the minimum signal (occurring within the 120 seconds after agonist addition.
All data was collected from at least two independent experiments each carried out in triplicate.
The obtained calcium signals were corrected for the response of cells expressing only the G Protein α subunit (Gα16-gustducin44) and normalized to the fluorescence of cells prior to the stimulus using ΔF/F0 (Fmax−Fmin/F0).
The intracellular calcium response following addition of sucralose was determined in HEK293T cell line stably expressing Gα16-gustducin44 and TAS2R1 formed as described in example 2c.

TAS2R10 = target: T2, TAS2R10 (Homo sapiens, UniProt Q9NYW0); assay: Fluo-4 calcium assay, HEK293T cells stably expressing Gα16-gustducin44 and TAS2R10; assay type: cell-based
T2 construct: The full length gene of human TAS2R44 was amplified by polymerase chain reaction (PCR) using gene-specific primers that span the entire coding region; RSS tag (first 45 amino acids of rat somatostatin receptor subtype 3) (N); expressed in transfected cells
T2 sequence (Q9NYW0 1-307): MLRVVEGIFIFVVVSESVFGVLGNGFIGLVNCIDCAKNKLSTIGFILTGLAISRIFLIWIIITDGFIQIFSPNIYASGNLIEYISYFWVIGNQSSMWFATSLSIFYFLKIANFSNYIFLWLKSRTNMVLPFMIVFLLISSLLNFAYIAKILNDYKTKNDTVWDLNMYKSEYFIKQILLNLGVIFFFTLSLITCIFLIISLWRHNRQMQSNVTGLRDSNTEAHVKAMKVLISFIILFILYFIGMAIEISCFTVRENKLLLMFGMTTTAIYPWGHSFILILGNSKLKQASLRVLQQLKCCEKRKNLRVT

[1] = tested on: bitter-sensitive panelists; assay: Sensory evaluation of bitter blocking in sucralose solution (forced choice); assay type: in vivo, human; settings: for perceived bitterness of sucralose, in words: 13 ppm in 3 mM sucralose solution
Experimental: The bitter blocking capability of test cpd A (13 ppm) in sucralose (3 mM) solution was evaluated. Twenty ml of each solution (sucralose or sucralose with test cpd A) was presented in random order to 15 bitter-sensitive panelists. In two replications, panelists were asked to select the solution they perceived as more bitter. A beta-binomial analysis was calculated from the forced-choice data to correct for overdispersion. Because panelists evaluated bitterness over 2 replications, the data was subjected to a beta-binomial d′ analysis to determine whether over-dispersion occurred. Not accounting for over-dispersion has the potential to underestimate the significance level at which a test is conducted and therefore lead to false-positive results. The analysis refuted overdispersion (gamma=0.00; p=0.109) and no adjustments were necessary.

Question: With OC[C@H]1O[C@H](O[C@]2(CCl)O[C@H](CCl)[C@@H](O)[C@@H]2O)[C@H](O)[C@@H](O)[C@H]1Cl [Sucralose, sucralose] as the molecule, how does the “calcium signaling in TAS2R1 cells, in words” value (TAS2R1) read?
Answer: significant concentration-dependent increase in calcium signaling

Question: And the “TAS2R1 ΔF/F0” value (TAS2R1; sucralose 0.3906 mM)?
Answer: 0.052

Question: And the “TAS2R1 ΔF/F0” value (TAS2R1; sucralose 0.7813 mM)?
Answer: 0.050

Question: What about the “TAS2R1 ΔF/F0” value (TAS2R1; sucralose 1.5625 mM) of the same molecule?
Answer: 0.047

Question: And the “TAS2R1 ΔF/F0” value (TAS2R1; sucralose 3.1250 mM)?
Answer: 0.059

Question: And the “TAS2R1 ΔF/F0” value (TAS2R1; sucralose 6.2500 mM)?
Answer: 0.061

Question: And the “TAS2R1 ΔF/F0” value (TAS2R1; sucralose 12.5000 mM)?
Answer: 0.072

Question: What about the “TAS2R1 ΔF/F0” value (TAS2R1; sucralose 25.0000 mM) of the same molecule?
Answer: 0.104

Question: What about the “TAS2R1 ΔF/F0” value (TAS2R1; sucralose 50.0000 mM) of the same molecule?
Answer: 0.197

Question: What about the “TAS2R1 ΔF/F0” value (TAS2R1; sucralose 100.0000 mM) of the same molecule?
Answer: 0.518

Question: What about the “calcium signaling in TAS2R10 cells, in words” value (TAS2R10) of the same molecule?
Answer: significant concentration-dependent increase in calcium signaling

Question: What about the “TAS2R10 ΔF/F0” value (TAS2R10; sucralose 0.3906 mM) of the same molecule?
Answer: 0.050

Question: And the “TAS2R10 ΔF/F0” value (TAS2R10; sucralose 0.7813 mM)?
Answer: 0.050

Question: What about the “TAS2R10 ΔF/F0” value (TAS2R10; sucralose 1.5625 mM) of the same molecule?
Answer: 0.047

Question: What about the “TAS2R10 ΔF/F0” value (TAS2R10; sucralose 3.1250 mM) of the same molecule?
Answer: 0.053

Question: And the “TAS2R10 ΔF/F0” value (TAS2R10; sucralose 6.2500 mM)?
Answer: 0.053

Question: What about the “TAS2R10 ΔF/F0” value (TAS2R10; sucralose 12.5000 mM) of the same molecule?
Answer: 0.059

Question: And the “TAS2R10 ΔF/F0” value (TAS2R10; sucralose 25.0000 mM)?
Answer: 0.087

Question: And the “TAS2R10 ΔF/F0” value (TAS2R10; sucralose 50.0000 mM)?
Answer: 0.212

Question: What about the “TAS2R10 ΔF/F0” value (TAS2R10; sucralose 100.0000 mM) of the same molecule?
Answer: 0.437

Question: With CC1=CCC(C/C=C/C(=O)O)C1(C)C (stereo not drawn) [test cpd A, (E)-4-(2,2,3-trimethylcyclopent-3-enyl)but-2-enoic acid] as the molecule, how does the “perceived bitterness of sucralose, in words” value [1] read?
Answer: reduced the perceived bitterness

Question: And the “perceived bitterness of sucralose, in words” value ([1]; listed as (E)-4-(2,2,3-trimethylcyclopent-3-enyl)but-2-enoic acid)?
Answer: significantly reduce the bitter aftertaste of sucralose

Question: What about the “evaluations selecting the solution with test compound as less bitter than 3 mM sucralose solution” value ([1]; 13 ppm in 3 mM sucralose, 15 panelists, 2 replications, p<0.05) of the same molecule?
Answer: 22 of 30

Question: And the “d′” value ([1]; 13 ppm in 3 mM sucralose, forced choice)?
Answer: 0.88±0.12
